Values of other authors, collected in patent US11123309B2, “Methods for drug delivery, tumor imaging, and oxidative dehydrogenation using hierarchical ZSM-5 complex” (Imam Abdulrahman Bin Faisal University, priority 2018, dated 2021).

solubility in water: 50 microgram per ml
SMILES: Oc1ccc(/C=C/c2cc(O)cc(O)c2)cc1 [resveratrol, 3,5,4′ trihydroxy trans stilbene]
